Experimental data: the supplement of paper PMC10307832

Key:
Assay in all cases: relative viability (nuclei count vs DMSO), 5 days (fraction); higher = more cells survive
Bemcentinib + Foretinib = compound: Nc1nc(Nc2ccc3c(c2)CC[C@@H](N2CCCC2)CC3)nn1-c1cc2c(nn1)-c1ccccc1CCC2 [Bemcentinib] + COc1cc2c(Oc3ccc(NC(=O)C4(C(=O)Nc5ccc(F)cc5)CC4)cc3F)ccnc2cc1OCCCN1CCOCC1 [Foretinib] (partner 0.25 µM)
Method in brief: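 One day after seeding in 1536-well plates, lung cancer cell lines were dosed by pin tool. Dosing was either single-drug or a fixed anchor-drug dose plus five library-drug doses (not always all listed) in √10 steps. After 5 days, nuclei were stained in one fix-and-stain step and counted on 4× images, and relative viability is the nuclei count of treated wells over that of vehicle wells, given as the median of duplicate plates.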

Axitinib = compound: CNC(=O)c1ccccc1Sc1ccc2c(/C=C/c3ccccn3)n[nH]c2c1 [Axitinib]
Method in brief: (§1)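 For viability, nuclei in each treated well were divided by nuclei in vehicle wells and the median across plates was taken. Lung cancer cell lines in 1536-well plates were pinned with five library-drug doses (not always all listed) spaced by √10, cultured 5 days without medium change, and imaged at 4× after Hoechst staining, with plates passing only at control CV below 25% and at least one doubling.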

Bemcentinib = compound: Nc1nc(Nc2ccc3c(c2)CC[C@@H](N2CCCC2)CC3)nn1-c1cc2c(nn1)-c1ccccc1CCC2 [Bemcentinib]
Method in brief: as §1

Pifithrin_alpha = compound: CC1=CC=C(C=C1)C(=O)CN2C3=C(CCCC3)SC2=N [Pifithrin_alpha]
Method in brief: as §1

Cell Line	relative viability (Bemcentinib + Foretinib; first compound 0.04 µM)	relative viability (Bemcentinib + Foretinib; first compound 0.1265 µM)	relative viability (Bemcentinib + Foretinib; first compound 0.4 µM)	relative viability (Bemcentinib + Foretinib; first compound 1.265 µM)	relative viability (Bemcentinib + Foretinib; first compound 4 µM)	relative viability (Axitinib; 0.005 µM)	relative viability (Axitinib; 0.05 µM)	relative viability (Axitinib; 0.1581 µM)	relative viability (Axitinib; 0.5 µM)	relative viability (Bemcentinib; 0.04 µM)	relative viability (Bemcentinib; 0.1265 µM)	relative viability (Bemcentinib; 0.4 µM)	relative viability (Bemcentinib; 1.265 µM)	relative viability (Bemcentinib; 4 µM)	relative viability (Pifithrin_alpha; 1 µM)	relative viability (Pifithrin_alpha; 3.162 µM)	relative viability (Pifithrin_alpha; 10 µM)	relative viability (Pifithrin_alpha; 31.62 µM)	relative viability (Pifithrin_alpha; 100 µM)	relative viability (Axitinib; 0.01581 µM)
PC-3 [JPC-3]	1.07	1.05	1.1	0.992	1.03	1.08	1.1	1.03	1.2	0.978	1.06	1.12	1.05	1.06	0.73	1.03	0.934	0.949	0.932	–
NCI-H358	0.723	0.827	0.73	0.749	0.853	0.947	1.05	0.87	1.14	0.915	0.941	0.997	1.01	1.07	0.825	0.94	0.924	0.733	0.945	0.957
NCI-H1975	0.982	0.995	0.995	0.865	1.04	1.02	0.89	0.943	0.985	0.867	1.07	1	0.93	0.973	0.861	0.642	0.665	0.623	0.598	0.927
Calu-6	0.93	0.938	0.947	0.917	0.905	1.08	1.03	1	1.12	1.07	1.15	1.13	1.08	1.05	1.06	1.05	1	0.655	0.899	0.999
EBC-1	0.0932	0.0983	0.108	0.0894	0.103	1.15	1.05	0.956	1.08	1.02	1.2	1.09	0.999	1.22	0.973	0.996	0.794	0.582	0.723	0.995
LC-2-ad	0.881	0.964	1.01	0.927	0.969	1	1.03	0.956	1.02	0.903	0.988	0.99	0.971	0.972	0.702	1	0.96	0.697	0.832	0.963
NCI-H1993	0.82	0.76	0.833	0.764	0.829	1.05	0.909	0.94	0.864	0.911	0.927	1.22	0.921	0.994	0.693	0.764	0.743	0.658	0.775	0.892
CAL-12T	1.17	1.1	0.97	1.11	1.07	1.03	0.983	0.94	0.977	0.989	1.02	1.06	1.02	1.01	0.778	1	0.937	0.711	0.765	1
NCI-H1650	1.12	1.1	0.969	0.885	1.32	1.07	1.05	0.822	1.15	0.783	1.01	0.974	0.978	0.861	0.889	0.811	0.787	0.607	0.813	0.805
H3255	0.897	0.857	0.766	0.892	0.724	0.985	0.912	0.894	0.896	0.804	0.994	0.993	0.951	0.964	0.856	0.93	0.945	0.71	0.795	0.851
NCI-H2228	0.516	0.931	0.994	0.908	0.776	1.09	1.05	1.05	1.03	0.8	1.13	1.05	0.96	1.22	0.99	1.03	0.97	0.93	1.05	0.943
NCI-H727	0.881	1.09	0.935	0.88	1.03	1.01	0.991	0.86	0.972	0.869	1.08	1.19	1.01	1.2	0.829	0.841	0.883	0.587	0.837	0.881
NCI-H1355	0.958	1.12	1.03	1.04	0.98	0.945	1.05	0.968	0.901	0.992	1.08	1.09	0.974	1.06	0.849	0.808	0.645	0.565	0.713	1.01
LXF-289	0.959	1.06	0.976	0.983	0.994	1.01	0.994	0.963	1.05	1.03	1.09	1.06	1.06	1.05	1.02	1.02	0.98	0.941	0.977	0.971
NCI-H3122	–	1.06	0.972	0.943	0.948	0.973	1.02	1.02	1.11	–	1.06	0.977	1.06	1.06	0.982	0.999	0.965	0.745	1.02	0.985
NCI-H2023	0.824	1.09	0.936	0.731	0.686	0.984	0.945	0.936	1.13	0.975	1.08	1.14	1.08	1.13	0.924	0.846	0.902	0.461	0.686	0.972

Cell Line	relative viability (Bemcentinib + Foretinib; first compound 0.04 µM)	relative viability (Bemcentinib + Foretinib; first compound 0.1265 µM)	relative viability (Bemcentinib + Foretinib; first compound 0.4 µM)	relative viability (Bemcentinib + Foretinib; first compound 1.265 µM)	relative viability (Bemcentinib + Foretinib; first compound 4 µM)	relative viability (Axitinib; 0.005 µM)	relative viability (Axitinib; 0.05 µM)	relative viability (Axitinib; 0.1581 µM)	relative viability (Axitinib; 0.5 µM)	relative viability (Bemcentinib; 0.04 µM)	relative viability (Bemcentinib; 0.1265 µM)	relative viability (Bemcentinib; 0.4 µM)	relative viability (Bemcentinib; 1.265 µM)	relative viability (Bemcentinib; 4 µM)	relative viability (Pifithrin_alpha; 1 µM)	relative viability (Pifithrin_alpha; 3.162 µM)	relative viability (Pifithrin_alpha; 10 µM)	relative viability (Pifithrin_alpha; 31.62 µM)	relative viability (Pifithrin_alpha; 100 µM)	relative viability (Axitinib; 0.01581 µM)
IA-LM	1.08	1.25	0.985	1.08	1.09	1.03	0.987	0.999	0.88	0.946	1.19	0.975	0.995	0.977	0.853	0.993	0.555	0.491	0.418	0.954
NCI-H2342	1.04	1.12	1.09	1.06	1.13	0.975	1.01	1.09	0.775	0.949	1.06	1.01	0.932	1.01	0.916	0.928	0.884	0.976	0.929	1.14
NCI-H838	1.05	1.15	1.21	1.11	1.18	0.992	1.01	0.933	1.03	0.946	1.08	1	1.02	1.03	0.856	0.807	0.854	0.735	0.643	0.944
COR-L 105	1.43	1.27	1.01	0.856	0.993	0.995	1.02	0.868	1.2	0.726	0.964	1.06	0.912	1.04	0.792	0.841	0.862	0.695	0.758	0.786
RERF-LC-KJ	0.943	0.941	0.919	0.829	0.984	1.07	1.01	0.984	1.04	1.07	1.04	1.11	1.07	1.06	0.873	0.935	0.858	0.81	0.795	0.991
NCI-H2405	1.05	1.02	1.03	1.12	1.04	1	1.14	0.973	0.95	0.944	1.03	1.01	1	1.08	0.733	0.962	0.904	0.876	0.921	1.04
UMC-11	0.939	1.18	1.15	1.12	1.08	1.03	0.956	0.935	0.899	0.982	1.13	1.08	0.871	0.995	0.965	0.949	1.04	0.907	1.23	0.943
PC-14	1.07	0.907	1	0.959	1.02	1.05	1.09	0.951	1.13	1.02	1.15	1.1	1.02	1.02	0.866	1.02	0.949	0.625	0.842	0.808
HCC-78	0.578	0.486	0.555	–	0.562	0.978	0.893	0.936	0.867	0.752	0.926	1.07	0.791	0.957	0.669	0.892	0.815	0.694	0.823	1.02
A-427	1.09	1.1	1.24	1.06	1.19	1.02	1.02	1.02	0.964	0.935	1.11	1.05	0.93	0.931	0.975	0.957	0.804	0.788	1.02	0.93
HCC-827	1.13	1.05	1.08	1.09	1.08	1.03	1.06	1.1	1.15	1.07	1.05	0.994	0.976	1.06	1.03	1.02	0.977	0.809	0.896	1.01
ABC-1	1.05	1.18	1	0.899	0.897	0.945	0.985	0.812	1.08	0.78	1.14	1.16	0.865	0.984	0.523	0.85	0.788	0.55	0.731	0.863
EPLC-272H	0.639	0.899	0.712	0.839	0.988	0.943	0.938	0.896	0.83	0.749	0.991	1.01	0.906	0.841	0.622	0.892	0.859	0.755	0.802	0.832
SK-MES-1	1.11	0.968	0.952	1.11	1.11	1.03	1.01	0.976	1.06	1.03	1.09	1.07	1.11	1.11	0.893	0.927	0.901	0.726	0.815	0.998
NCI-H520	0.957	0.748	0.911	0.685	0.791	0.974	1.07	0.765	0.992	0.868	1.08	0.992	1.02	1.08	1.05	0.916	0.96	0.763	1.1	0.737
BEN	0.562	0.731	0.711	0.612	0.635	0.958	0.902	0.868	0.741	0.833	1.13	1.08	0.919	0.894	0.854	1.02	1.14	0.93	1.08	1.01
